From publication PMC6934184, “Selective DNA-PKcs inhibition extends the therapeutic index of localized radiotherapy and chemotherapy” (The Journal of Clinical Investigation, 2019)

Target: T1, LIMK2 (Homo sapiens, UniProt P53671)
T1 construct: purchased Thermo Fisher Scientific (Life Technologies) SelectScreen
Assay: SelectScreen LanthaScreen
Format: binding
Conditions: read-out: % displacement
How it was run: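 NU5455 was profiled across the SelectScreen Broad panel of kinase activity and binding assays. Z'LYTE reactions such as CSF1R ran at apparent Km ATP, while the Adapta CAMK1 assay used ATP listed as 10. Values are given as percent.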

T1 sequence (P53671 whole entry): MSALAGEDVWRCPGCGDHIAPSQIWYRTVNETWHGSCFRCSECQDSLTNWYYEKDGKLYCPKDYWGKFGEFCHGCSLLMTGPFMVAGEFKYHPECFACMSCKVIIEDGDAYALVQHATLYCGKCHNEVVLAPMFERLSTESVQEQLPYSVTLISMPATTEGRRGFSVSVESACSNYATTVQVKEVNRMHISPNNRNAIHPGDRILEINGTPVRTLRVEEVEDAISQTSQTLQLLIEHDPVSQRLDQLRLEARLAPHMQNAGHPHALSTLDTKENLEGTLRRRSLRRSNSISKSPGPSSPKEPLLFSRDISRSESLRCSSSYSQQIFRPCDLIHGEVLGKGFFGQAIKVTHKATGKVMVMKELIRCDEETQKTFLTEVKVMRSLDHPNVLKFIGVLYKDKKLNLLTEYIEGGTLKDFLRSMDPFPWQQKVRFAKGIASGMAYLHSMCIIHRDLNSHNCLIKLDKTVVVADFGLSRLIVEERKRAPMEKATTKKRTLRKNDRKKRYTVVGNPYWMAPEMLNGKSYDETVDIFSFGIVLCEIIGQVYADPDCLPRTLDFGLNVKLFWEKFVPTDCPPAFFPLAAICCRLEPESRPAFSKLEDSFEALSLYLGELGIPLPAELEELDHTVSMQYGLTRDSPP

## CN(C(=O)CN1CCOCC1)c1ccc2sc3c(-c4cccc5c(=O)cc(N6CC7CCC(C6)O7)oc45)cccc3c2c1 [NU5455]
  inhibition at 1 µM: 1.4%
